Details: Liquid, light scattering

CCCCCCCC(=O)OCC [ethyl octanoate]
Details	speed of sound [m/s]
293.25 K, 100 kPa	1281
293.65 K, 1000 kPa	1284
293.67 K, 2510 kPa	1290.6
293.69 K, 4020 kPa	1296.8
293.72 K, 5520 kPa	1301
293.75 K, 6980 kPa	1307.1
293.77 K, 8490 kPa	1313.5
293.77 K, 10010 kPa	1325.8
303.05 K, 100 kPa	1245.9
303.08 K, 8480 kPa	1288.6
303.13 K, 7040 kPa	1280.7
303.14 K, 3980 kPa	1263.7
303.15 K, 1030 kPa	1249.1
303.15 K, 2510 kPa	1257.8
303.15 K, 5520 kPa	1273.7
303.18 K, 10000 kPa	1295.5
313.07 K, 100 kPa	1211
313.15 K, 1000 kPa	1214.2
313.28 K, 9990 kPa	1263.2
313.38 K, 8530 kPa	1257.4
313.39 K, 5500 kPa	1240.3
313.4 K, 2510 kPa	1223.2
313.4 K, 4060 kPa	1230.6
313.41 K, 6980 kPa	1249.6
322.88 K, 100 kPa	1176.3
323.19 K, 8540 kPa	1227.3
323.29 K, 10100 kPa	1231.2
323.33 K, 1200 kPa	1185.7
323.35 K, 2490 kPa	1190.8
323.35 K, 3970 kPa	1197.8
323.35 K, 5510 kPa	1205.3
323.35 K, 7060 kPa	1215
332.39 K, 9980 kPa	1202.3
332.49 K, 8520 kPa	1194.3
332.64 K, 7040 kPa	1183.5
332.65 K, 5510 kPa	1175.2
332.67 K, 2480 kPa	1158.3
332.67 K, 4030 kPa	1167.5
332.68 K, 980 kPa	1149.1
333 K, 100 kPa	1141.8
342.6 K, 890 kPa	1113.2
342.61 K, 4000 kPa	1133.9
342.64 K, 2530 kPa	1124.1
342.71 K, 5490 kPa	1142.7
342.74 K, 8510 kPa	1163.8
342.77 K, 6990 kPa	1152.8
342.94 K, 9970 kPa	1168.8
343.12 K, 100 kPa	1107.4
352.36 K, 100 kPa	1073.3
353.44 K, 10120 kPa	1135.6
353.54 K, 2480 kPa	1088
353.54 K, 6990 kPa	1116
353.54 K, 8520 kPa	1129.3
353.56 K, 1030 kPa	1080.3
353.58 K, 5480 kPa	1103.2
353.6 K, 4000 kPa	1096.3
363.16 K, 8500 kPa	1095.2
363.19 K, 100 kPa	1039.3
363.19 K, 1070 kPa	1047.2
363.19 K, 7030 kPa	1083.1
363.21 K, 2520 kPa	1053.8
363.21 K, 4080 kPa	1062
363.21 K, 5520 kPa	1071.3
363.26 K, 10030 kPa	1104.7
372.7 K, 2510 kPa	1022.9
372.73 K, 3980 kPa	1033.3
372.75 K, 8570 kPa	1067.6
372.79 K, 100 kPa	1005.6
372.79 K, 1040 kPa	1013.2
372.82 K, 5530 kPa	1046.7
372.82 K, 6960 kPa	1055.2
372.95 K, 10040 kPa	1074.2
382.73 K, 7000 kPa	1020.4
382.8 K, 5550 kPa	1012.8
382.82 K, 4060 kPa	998.99
382.9 K, 2540 kPa	988.47
382.95 K, 100 kPa	972.04
382.95 K, 1050 kPa	980.18
383.03 K, 8530 kPa	1028.1
383.13 K, 9970 kPa	1042.4
391.81 K, 8490 kPa	1002.4
391.91 K, 9990 kPa	1015
392.15 K, 7010 kPa	991.89
392.29 K, 5490 kPa	982.56
392.32 K, 100 kPa	938.67
392.32 K, 1010 kPa	945.16
392.33 K, 2550 kPa	958.2
392.33 K, 4070 kPa	971.34
402.89 K, 4000 kPa	940.63
402.9 K, 7020 kPa	959.16
402.91 K, 100 kPa	905.5
402.91 K, 1000 kPa	915.87
402.91 K, 2490 kPa	928.04
402.91 K, 8480 kPa	970.85
402.92 K, 10030 kPa	980.74
402.93 K, 5470 kPa	948.7
412.66 K, 8500 kPa	941.83
412.76 K, 10040 kPa	953.27
412.87 K, 7050 kPa	922.57
413.17 K, 5530 kPa	910.63
413.21 K, 100 kPa	872.52
413.21 K, 1080 kPa	878.09
413.21 K, 4060 kPa	901.97
413.22 K, 2570 kPa	890.98
423.24 K, 8520 kPa	908.5
423.29 K, 7010 kPa	892.99
423.3 K, 5530 kPa	882.56
423.31 K, 2520 kPa	857.92
423.32 K, 100 kPa	839.73
423.32 K, 1150 kPa	848.64
423.44 K, 10060 kPa	919.28
423.53 K, 4090 kPa	870.32
432.95 K, 5520 kPa	847.49
432.96 K, 8480 kPa	875.16
433.06 K, 10010 kPa	888.66
433.09 K, 7010 kPa	859.4
433.41 K, 2490 kPa	823.86
433.44 K, 100 kPa	807.14
433.44 K, 1010 kPa	813.1
433.84 K, 4510 kPa	835.67
442.69 K, 8510 kPa	841.83
442.9 K, 7010 kPa	829.81
442.99 K, 10020 kPa	857.21
443.15 K, 5510 kPa	817.42
443.16 K, 3990 kPa	805.02
443.51 K, 2510 kPa	790.8
443.55 K, 100 kPa	774.74
443.55 K, 990 kPa	780.57
452.41 K, 8480 kPa	813.49
452.7 K, 7010 kPa	798.22
453.15 K, 5520 kPa	789.35
453.41 K, 10010 kPa	826.34
453.47 K, 4510 kPa	776.37
453.61 K, 2490 kPa	762.74
453.66 K, 100 kPa	742.53
453.66 K, 1010 kPa	749.03
462.5 K, 7010 kPa	772.63
463.14 K, 8480 kPa	783.19
463.15 K, 5520 kPa	760.28
463.24 K, 10010 kPa	795.41
463.71 K, 2490 kPa	730.68
463.78 K, 100 kPa	710.51
463.78 K, 1010 kPa	715.5
463.79 K, 4510 kPa	744.72
472.07 K, 8500 kPa	760.99
472.09 K, 1040 kPa	688.23
472.09 K, 6960 kPa	745.31
472.11 K, 2530 kPa	704.34
472.14 K, 5460 kPa	730.7
472.15 K, 4000 kPa	718.2
472.17 K, 10000 kPa	773.29
473.09 K, 100 kPa	678.69

Details	speed of sound [m/s]
293.73 K	1275.7
302.98 K	1243
313.53 K	1206.1
323.27 K	1173.1
332.65 K	1138.5
343.2 K	1103.8
352.53 K	1069.9
363.28 K	1035.2
372.96 K	1001.9
383 K	969.3
392.03 K	936.3
403.14 K	901.4
413.12 K	869.5
423.11 K	835.7
433.2 K	801.1
443.05 K	770.7
453.11 K	738.5
463.17 K	705.5
472.16 K	675
